From US7524930B2, “Tumor antigen” (Green Peptide Co., Ltd, priority 2003, dated 2009)

Experiments:
[1] = system: peripheral blood mononuclear cells derived from a cancer patient; test: CTL induction by peptide from autologous PBMC of cancer patient, IFN-γ production on recognition of target cells (Example 5); format: cell-based, human; settings: for IFN-γ production from peripheral blood mononuclear cells in recognition of target cells: PBMC stimulated with 10 μM peptide
Excerpt: Among the peptides that were able to enhance IFN-γ production from the OK-CTLp or OK-CTL clone in Example 4, those from P1 to P19 were examined for their ability to induce CTL from peripheral blood mononuclear cells derived from a cancer patient. The method for inducing CTL by a peptide was according to the well-known method (J. Exp. Med., 187:277-288, 1998; Cancer Res., 59:4056-4063, 1999.) Specifically, autologous peripheral blood mononuclear cells (PBMC) derived from a cancer patient, from whom OK-CTLp was obtained, were incubated together with the peptide (10 μM.) The cells were re-stimulated at day 10 and 14 after the start of culturing, using autologous PBMCs as an antigen presenting cell (APC) which were pulsed with 10 μM of the same peptide for 2 h and exposed to irradiation (30 gray.) At day 21 after the start of culturing, the cells were collected to test for surface phenotype. In addition, the cells were examined for the recognition of various target cells, using IFN-γ production measured by ELISA when they were cultured together with the target cells as an indicator. As a target cells, SW620 cell, CA9-22 cell, and Panc-1 cell, which are the HLA-A2^+ tumor cells, were used.

[2] = system: peripheral blood mononuclear cells derived from a cancer patient; test: as above; format: cell-based, human; settings: PBMC stimulated with 10 μM peptide
[3] = target: T1, HLA-A0201 molecule (Homo sapiens, UniProt P04439, D140Y/D185E/D98H/E176V/E277Q/G131W/G231S/I119V/I121R/I166T/I218V/L300P/L318F/N151K/N90K/P208A/P217A/Q86G/Q94H/R138H/R169H/T345S); test: Binding activity of peptide to HLA-A0201 molecule on T2 cells (FACScan, MFI); settings: peptide 10 μM, positive and negative controls 898 and 490
T1 construct: endogenous in cells; host or cells: T2 cells (TAP-deficient mutant line)
Procedure: Binding activity of the peptide to the HLA-A0201 molecule was tested using a T2 cell mutant strain (Cancer Res., 54:1071-1076, 1994. ) The T2 cell expresses the HLA-A2 molecule on a cell surface without binding to a peptide, because of deficiency of TAP. Specifically, the synthesized peptide (10 μM) and the T2 cells were incubated at 26° C. for 3 h and, subsequently, incubated in 5% CO2 and 95% air at 37° C. for 3 h.
Binding affinity of the peptides to HLA-A0201 molecule was expressed as a relative mean fluorescence intensity (MFI) of the HLA-A2 molecule.

LIADETSGL [Peptide P3, Gene 1 (UBE2V) 85-93]
Recognition of tumor cells by PBMC stimulated in vitro with peptide (IFN-γ production) ([1]; SW620, CA9-22 and Panc-1 HLA-A2+ tumor cells, result in words): produced IFN-γ in a significant amount
IFN-γ production from peripheral blood mononuclear cells in recognition of target cells ([1]; target CA9-22 (HLA-A0207/24)): 58 pg/mL
IFN-γ production from peripheral blood mononuclear cells in recognition of target cells ([1]; target Panc-1 (HLA-A0201/11)): 289 pg/mL
IFN-γ production from peripheral blood mononuclear cells in recognition of target cells ([1]; target SW620 (HLA-A0201/24)): 188 pg/mL
IFN-γ production from peripheral blood mononuclear cells in recognition of target cells ([2]; target COLO320 (HLA-A24/24)): 44 pg/mL
IFN-γ production from peripheral blood mononuclear cells in recognition of target cells ([2]; target QG56 (HLA-A26/26)): 0 pg/mL
IFN-γ production from peripheral blood mononuclear cells in recognition of target cells ([2]; target RERF-LC-MS (HLA-A11/11)): 0 pg/mL
MFI (relative mean fluorescence intensity of the HLA-A2 molecule; binding affinity to HLA-A0201) [3]: 910
